# Laboratory results from patent publication US12440544B2, “Cross-reactive epitope for multiple sclerosis” (The Board of Trustees of the Leland Stanford Junior …, priority 2019, dated 2025).
# Columns and labels:
# Assay type in all cases: cell-based, human
# MS-1 TCR cell line = experiment: T cell stimulation assay (CD69), MS1-TCR cell line co-cultured with peptide-loaded T2-DR15 antigen presenting cells; details: for self-peptide identified for TCR2/MS-1 TCR: predicted with positional mutation/refined substitution matrix data, used for MS-1 TCR stimulation
# Text: We generated MS1-TCR cell line, co-cultured with T2-DR15 antigen presenting cell line loaded with yeast library generated peptides and were examined for activation. CD69 was used as a marker for T cell activation. […] We used yeast library enrichment data to predict actual peptides/antigens (self or non-self) for MS-1 CD4 TCRs.
# TCRα, β constructs were cloned into a lentiviral construct. For TCR expression, alpha and beta TCR lentiviral constructs were transfected into 293× cells separately. The virus was harvested after 72 hr of transfection and transduced into Jurkat αβ^−/− or SKW αβ^−/− cells. SKW or Jurkat cells were enriched for highest expression of TCRαβ by using a Miltenyi anti-APC selection (Miltenyi 130-090-855).
# T cell stimulation assays were performed as previously described. All the T cell peptide stimulation experiments were done in 96 well round bottom plates with a 200 μl total volume. T2, K562 cells or BMDCs were pulsed with 10-100 ug of the peptides for 45 minutes, washed once and plated (10,000 cells/well). Cell lines expressing TCRs (100, 000 cells/well) were co-cultured with APCs for 18 hr. At the end of stimulation, cells were harvested, washed, and stained with TCRβ, human CD3, and CD69 and analyzed on LSR II (Becton Dickinson) for activation.
# Adeno-TCR1 = experiment: T cell stimulation of adeno-tetramer sorted CD4 TCR cell line, cross reactivity with MBP 85-99 peptide; details: adeno specific TCR cell line stimulated with Adeno peptide and MBP
# Text: (§1) To detect/determine adeno specific T cells directly from MS patients (n=9) and healthy (n=9), we generated pMHC tetramers, enriched, and enumerated CD4's that are specific to the adeno peptide. We were able to detect adeno specific CD4 T cells, which were higher in number among MS patients compared to HC. We also single cell sorted these adeno specific CD4 T cells, sequenced their TCRs, and generated TCR cell lines (adeno specific TCRs).
# (§2) TCR cell lines from adeno-tetramer sorted CD4 TCRs were tested for cross reactivity with MBP 85-99 peptide. We also tested MS-1 TCR for cross reactivity with MBP. Adeno specific TCRs were stimulated with Adeno peptide and MBP. TCR2/ms-1 TCR and some of the adeno-TCRs (Adeno-TCR1 and 9) cross react with MBP peptide. Serum from MS (n=28) and HC (n=10) was tested for adeno virus titers in the serum. A subset of MS sera had higher adeno virus compared to HC sera. CD3+ T cells from 8 MS and 5 HCs were sorted, and TCR and RNA-seq performed using 10× platform. Additionally, for 4 out of 8 MS patients, T cells from cerebrospinal fluid were sequenced. […]
# (§3) T cell stimulation assays were performed as previously described. […] At the end of stimulation, cells were harvested, washed, and stained with TCRβ, human CD3, and CD69 and analyzed on LSR II (Becton Dickinson) for activation.
# Adeno-TCR9 = experiment: as above; details: adeno specific TCR cell line stimulated with Adeno peptide and MBP
# Text: as §1, §2, §3
sequence,measurement,setting,value
ENPVVHFFKNIVTPR [MBP peptide],cross reactivity of TCR2/MS-1 TCR with MBP peptide,MS-1 TCR cell line; TCR cell line stimulated with Adeno peptide and MBP,cross react
same,cross reactivity of Adeno-TCR1 with MBP peptide,Adeno-TCR1,cross react
same,cross reactivity of Adeno-TCR9 with MBP peptide,Adeno-TCR9,cross react
ATFTSYRSWYLA [Adeno],stimulation of MS-1 TCR cell line (CD69 as marker for T cell activation),MS-1 TCR cell line; co-cultured with T2-DR15 antigen presenting cell line loaded with peptide,stimulated MS-1 TCR cell line
IDRHMYHSYLK [SEQ ID NO:3],self-peptide identified for TCR2/MS-1 TCR,MS-1 TCR cell line,identified for TCR2/MS-1 TCR
ANYGKARSWYLK [SEQ ID NO:2],self-peptide identified for TCR2/MS-1 TCR,MS-1 TCR cell line,identified for TCR2/MS-1 TCR
DKGQQYRNWFLK [SEQ ID NO:4],self-peptide identified for TCR2/MS-1 TCR,MS-1 TCR cell line,identified for TCR2/MS-1 TCR
